US9662327B2 (AGIOS PHARMACEUTICALS, INC, priority 2011, dated 2017)

Target: IDH1 R132H (Homo sapiens (Human), UniProt O75874, R132H)
Assay: Assays for IDH1 R132H Inhibitors (NADPH/aKG, resazurin detection)
Type: biochemical
Conditions: IDH1 R132H enzyme, Table 2; read-out: IDHR132H Activity
Outline: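 Substrate mix held 8 uM NADPH plus 2 mM aKG; buffer was 20 mM Tris pH 7.5 with 150 mM NaCl, 10 mM MgCl2, 0.03% BSA. After 50 min room-temperature reaction, NADPH remaining was detected with 30 μM resazurin mix over 5 min.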

Sequence of IDH1 R132H (O75874 whole entry R132H): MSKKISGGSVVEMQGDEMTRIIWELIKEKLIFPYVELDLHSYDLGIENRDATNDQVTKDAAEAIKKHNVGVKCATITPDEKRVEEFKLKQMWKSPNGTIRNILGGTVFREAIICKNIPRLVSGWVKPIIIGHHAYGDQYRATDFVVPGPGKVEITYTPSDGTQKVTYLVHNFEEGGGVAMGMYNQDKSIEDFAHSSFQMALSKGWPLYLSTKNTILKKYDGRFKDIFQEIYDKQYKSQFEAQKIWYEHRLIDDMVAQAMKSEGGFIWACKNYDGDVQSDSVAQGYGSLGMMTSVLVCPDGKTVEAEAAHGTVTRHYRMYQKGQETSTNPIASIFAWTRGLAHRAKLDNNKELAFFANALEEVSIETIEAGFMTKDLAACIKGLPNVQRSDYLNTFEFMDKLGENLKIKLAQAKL

Compound	IC50 [µM]
Cc1ncoc1C(=O)N1CCN(c2nc(C(C)C)c3c(c2C#N)CC(C)(C)OC3)C[C@H]1C [Compound 197, (R)-8-isopropyl-3,3-dimethyl-6-(3-methyl-4-(4-methyloxazole-5-carbonyl)piperazin-1-yl)-3,4-dihydro-1H-pyrano[3,4-c]pyridine-5-carbonitrile]	1 to 10
CC(C)c1nc(N2CCN(C(=O)c3cocn3)[C@H](C)C2)c(C#N)c2c1COC(C)(C)C2 [Compound 198, (R)-8-isopropyl-3,3-dimethyl-6-(3-methyl-4-(oxazole-4-carbonyl)piperazin-1-yl)-3,4-dihydro-1H-pyrano[3,4-c]pyridine-5-carbonitrile]	1 to 10
COc1ccccc1CC(=O)N1CCN(c2nc(C(C)C)c3c(c2C#N)CC(C)(C)OC3)C[C@H]1C [Compound 199, (R)-8-isopropyl-6-(4-(2-(2-methoxyphenyl)acetyl)-3-methylpiperazin-1-yl)-3,3-dimethyl-3,4-dihydro-1H-pyrano[3,4-c]pyridine-5-carbonitrile]	1 to 10
CC(C)c1nc(N2CCN(C(=O)c3ccco3)[C@H](c3ccccc3)C2)c(C#N)c2c1COC(C)(C)C2 [Compound 200, (R)-6-(4-(furan-2-carbonyl)-3-phenylpiperazin-1-yl)-8-isopropyl-3,3-dimethyl-3,4-dihydro-1H-pyrano[3,4-c]pyridine-5-carbonitrile]	1 to 10
C[C@H]1CN(C(=O)c2ccco2)CCN1c1nc(C2CCCCC2)c2c(c1C#N)CCOC2 [Compound 201, (S)-8-cyclohexyl-6-(4-(furan-2-carbonyl)-2-methylpiperazin-1-yl)-3,4-dihydro-1H-pyrano[3,4-c]pyridine-5-carbonitrile]	1 to 10
CC(C)c1nc(N2CCN(C(=O)c3ccco3)C[C@@H]2C)c(C#N)c2c1COC(C)(C)C2 [Compound 202, (S)-6-(4-(furan-2-carbonyl)-2-methylpiperazin-1-yl)-8-isopropyl-3,3-dimethyl-3,4-dihydro-1H-pyrano[3,4-c]pyridine-5-carbonitrile]	1 to 10
C[C@H]1CN(C(=O)c2ccco2)CCN1c1nc(C2CC2)c2c(c1C#N)CC(C)(C)OC2 [Compound 203, (S)-8-cyclopropyl-6-(4-(furan-2-carbonyl)-2-methylpiperazin-1-yl)-3,3-dimethyl-3,4-dihydro-1H-pyrano[3,4-c]pyridine-5-carbonitrile]	1 to 10
C[C@@H]1CN(C(=O)c2ccco2)CCN1c1nc(C2CC2)c2c(c1C#N)CC(C)(C)OC2 [Compound 204, (R)-8-cyclopropyl-6-(4-(furan-2-carbonyl)-2-methylpiperazin-1-yl)-3,3-dimethyl-3,4-dihydro-1H-pyrano[3,4-c]pyridine-5-carbonitrile]	1 to 10
CC[C@@H]1CN(c2nc(C(C)C)c3c(c2C#N)CC(C)(C)OC3)CCN1C(=O)c1ccoc1 [Compound 205, (R)-6-(3-ethyl-4-(furan-3-carbonyl)piperazin-1-yl)-8-isopropyl-3,3-dimethyl-3,4-dihydro-1H-pyrano[3,4-c]pyridine-5-carbonitrile]	< 0.5
CC[C@@H]1CN(c2nc(C(C)C)c3c(c2C#N)CC(C)(C)OC3)CCN1C(=O)Cc1cccs1 [Compound 206, (R)-6-(3-ethyl-4-(2-(thiophen-2-yl)acetyl)piperazin-1-yl)-8-isopropyl-3,3-dimethyl-3,4-dihydro-1H-pyrano[3,4-c]pyridine-5-carbonitrile]	< 0.5
CC[C@@H]1CN(c2nc(C(C)C)c3c(c2C#N)CC(C)(C)OC3)CCN1C(=O)c1ccoc1C [Compound 207, (R)-6-(3-ethyl-4-(2-methylfuran-3-carbonyl)piperazin-1-yl)-8-isopropyl-3,3-dimethyl-3,4-dihydro-1H-pyrano[3,4-c]pyridine-5-carbonitrile]	< 0.5
COc1ccccc1CC(=O)N1CCN(c2nc(C3CC3)c3c(c2C#N)CC(C)(C)OC3)C[C@H]1C(C)C [Compound 208]	0.5 to 1
CC(C)[C@@H]1CN(c2nc(C3CC3)c3c(c2C#N)CC(C)(C)OC3)CCN1C(=O)Cc1ccccn1 [Compound 211]	< 0.5
CC(C)c1nc(N2CCN(C(=O)c3cocn3)[C@H](C(C)C)C2)c(C#N)c2c1COC(C)(C)C2 [Compound 212, (R)-8-isopropyl-6-(3-isopropyl-4-(oxazole-4-carbonyl)piperazin-1-yl)-3,3-dimethyl-3,4-dihydro-1H-pyrano[3,4-c]pyridine-5-carbonitrile]	0.5 to 1
Cc1ncoc1C(=O)N1CCN(c2nc(C(C)C)c3c(c2C#N)CC(C)(C)OC3)C[C@H]1C(C)C [Compound 213, (R)-8-isopropyl-6-(3-isopropyl-4-(4-methyloxazole-5-carbonyl)piperazin-1-yl)-3,3-dimethyl-3,4-dihydro-1H-pyrano[3,4-c]pyridine-5-carbonitrile]	1 to 10
CC(C)c1nc(N2CCN(C(=O)Cc3ccccn3)[C@H](C(C)C)C2)c(C#N)c2c1COC(C)(C)C2 [Compound 214, (R)-8-isopropyl-6-(3-isopropyl-4-(2-(pyridin-2-yl)acetyl)piperazin-1-yl)-3,3-dimethyl-3,4-dihydro-1H-pyrano[3,4-c]pyridine-5-carbonitrile]	0.5 to 1

Compound	IC50 [µM]
CC(C)c1nc(N2CCN(C(=O)Cc3ccccc3F)[C@H](C(C)C)C2)c(C#N)c2c1COC(C)(C)C2 [Compound 215, (R)-6-(4-(2-(2-fluorophenyl)acetyl)-3-isopropylpiperazin-1-yl)-8-isopropyl-3,3-dimethyl-3,4-dihydro-1H-pyrano[3,4-c]pyridine-5-carbonitrile]	1 to 10
COc1ccccc1CC(=O)N1CCN(c2nc(C(C)C)c3c(c2C#N)CC(C)(C)OC3)C[C@H]1C(C)C [Compound 216, (R)-8-isopropyl-6-(3-isopropyl-4-(2-(2-methoxyphenyl)acetyl)piperazin-1-yl)-3,3-dimethyl-3,4-dihydro-1H-pyrano[3,4-c]pyridine-5-carbonitrile]	1 to 10
Cc1oncc1C(=O)N1CCN(c2nc(C(C)C)c3c(c2C#N)CC(C)(C)OC3)C[C@H]1C [Compound 217, (R)-8-isopropyl-3,3-dimethyl-6-(3-methyl-4-(5-methylisoxazole-4-carbonyl)piperazin-1-yl)-3,4-dihydro-1H-pyrano[3,4-c]pyridine-5-carbonitrile]	0.5 to 1
CC(C)c1nc(N2CCN(C(=O)Cc3ccccn3)[C@H](C)C2)c(C#N)c2c1COC(C)(C)C2 [Compound 218, (R)-8-isopropyl-3,3-dimethyl-6-(3-methyl-4-(2-(pyridin-2-yl)acetyl)piperazin-1-yl)-3,4-dihydro-1H-pyrano[3,4-c]pyridine-5-carbonitrile]	1 to 10
CC(C)c1nc(N2CCN(C(=O)Cc3ccccc3F)[C@H](C)C2)c(C#N)c2c1COC(C)(C)C2 [Compound 219, (R)-6-(4-(2-(2-fluorophenyl)acetyl)-3-methylpiperazin-1-yl)-8-isopropyl-3,3-dimethyl-3,4-dihydro-1H-pyrano[3,4-c]pyridine-5-carbonitrile]	1 to 10
Cc1nc2ccccn2c1C(=O)N1CCN(c2nc(C(C)C)c3c(c2C#N)CC(C)(C)OC3)C[C@H]1C [Compound 220, (R)-8-isopropyl-3,3-dimethyl-6-(3-methyl-4-(2-methylimidazo[1,2-a]pyridine-3-carbonyl)piperazin-1-yl)-3,4-dihydro-1H-pyrano[3,4-c]pyridine-5-carbonitrile]	1 to 10
COc1cccc(CC(=O)N2CCN(c3nc(C(C)C)c4c(c3C#N)CC(C)(C)OC4)C[C@H]2C)c1 [Compound 221, (R)-8-isopropyl-6-(4-(2-(3-methoxyphenyl)acetyl)-3-methylpiperazin-1-yl)-3,3-dimethyl-3,4-dihydro-1H-pyrano[3,4-c]pyridine-5-carbonitrile]	1 to 10
CC(C)c1nc(N2CCN(C(=O)c3cnc4ccccn34)[C@H](C)C2)c(C#N)c2c1COC(C)(C)C2 [Compound 222, (R)-6-(4-(imidazo[1,2-a]pyridine-3-carbonyl)-3-methylpiperazin-1-yl)-8-isopropyl-3,3-dimethyl-3,4-dihydro-1H-pyrano[3,4-c]pyridine-5-carbonitrile]	1 to 10
CC(C)c1nc(N2CCN(C(=O)c3ccco3)[C@@H](c3ccccc3)C2)c(C#N)c2c1COC(C)(C)C2 [Compound 223, (S)-6-(4-(furan-2-carbonyl)-3-phenylpiperazin-1-yl)-8-isopropyl-3,3-dimethyl-3,4-dihydro-1H-pyrano[3,4-c]pyridine-5-carbonitrile]	0.5 to 1
COc1ccccc1CC(=O)N1CCN(c2nc(C3CCCCC3)c3c(c2C#N)CCOC3)C[C@H]1C [Compound 224, (R)-8-cyclohexyl-6-(4-(2-(2-methoxyphenyl)acetyl)-3-methylpiperazin-1-yl)-3,4-dihydro-1H-pyrano[3,4-c]pyridine-5-carbonitrile]	1 to 10
Cc1ncoc1C(=O)N1CCN(c2nc(C3CCCCC3)c3c(c2C#N)CCOC3)C[C@H]1C [Compound 225, (R)-8-cyclohexyl-6-(3-methyl-4-(4-methyloxazole-5-carbonyl)piperazin-1-yl)-3,4-dihydro-1H-pyrano[3,4-c]pyridine-5-carbonitrile]	1 to 10
C[C@@H]1CN(c2nc(C3CCCCC3)c3c(c2C#N)CCOC3)CCN1C(=O)c1cocn1 [Compound 226, (R)-8-cyclohexyl-6-(3-methyl-4-(oxazole-4-carbonyl)piperazin-1-yl)-3,4-dihydro-1H-pyrano[3,4-c]pyridine-5-carbonitrile]	1 to 10
C[C@@H]1CN(c2nc(C3CCCCC3)c3c(c2C#N)CCOC3)CCN1C(=O)c1cnc2ccccn12 [Compound 227, (R)-8-cyclohexyl-6-(4-(imidazo[1,2-a]pyridine-3-carbonyl)-3-methylpiperazin-1-yl)-3,4-dihydro-1H-pyrano[3,4-c]pyridine-5-carbonitrile]	1 to 10
CC(C)[C@@H]1CN(c2nc(C3CC3)c3c(c2C#N)CC(C)(C)OC3)CCN1C(=O)Cc1ccccc1F [Compound 228]	1 to 10
Cc1nc2ccccn2c1C(=O)N1CCN(c2nc(C3CC3)c3c(c2C#N)CC(C)(C)OC3)C[C@H]1C(C)C [Compound 229]	1 to 10
